Target: tyramine oxidase (microbial)
Assay: Compound was evaluated for inhibition of Microbial tyramine oxidase; irreversible

## NNC(=O)C1(c2ccccc2)CC1F (stereo unspecified) [2-Fluoro-1-phenyl-cyclopropanecarboxylic acid hydrazide]
  IC50: 20 µM

Source: BindingDB's records for doi:10.1021/jm030398k (National Institute of Diabetes and Digestive and Kidney …, 2004)
